Data: patent US20080221134A1, “8-ALKYNYLXANTHINES AND DERIVATIVES” (priority 2006, published 2008)
Entries after “also recorded” stand apart in the source; their conditions may differ.

Key:
[1] = tested on: haloperidol induced model of Parkinson's Disease; assay: Haloperidol induced model of Parkinson's Disease; conditions: in vivo
[2] = tested on: Reserpine induced catalepsy; assay: Acute Reserpine induced catalepsy test; assay type: in vivo, rat; conditions: for effect on catalepsy time in acute Reserpine induced catalepsy model: i.p. in DMSO, 0.1-10 mg/kg; for maximum catalepsy values after Reserpine treatment / median catalepsy values after Reserpine treatment: vs only Reserpine-treated animals
Protocol: Animals were administered with Reserpine or CGS-21680 according to methods known to the skilled person in the art. These models and procedures are e.g. described by Ferré S. et al., Neurosci. Let., 1991, 130, 162; Ferré S. et al., Neuroscience, 1992, 51, 501; Kafka S. H. et al., Eur. J. Pharmacol., 1996, 295, 147; Rimondini R. et al., Neuropsychopharmacology, 1997, 17, 82 and are herein incorporated by reference. In the acute CGS-21680 induced catalepsy model (CGS model) the test compounds (TC, compounds according to the present invention) and CGS-21680 (i.p. 2 mg/kg) were administered 60 minutes before the start of the catalepsy bar measurement and behavioural testing described below (see also FIG. 1). In the acute Reserpine induced catalepsy model (RES model Resperine (subcutaneously, 3 mg/kg) was injected 24 h prior to the test compound application. Catalepsy bar measurement took place 60 minutes after test compound application (see FIG. 1). Test compounds were administered i.p. in DMSO in following doses (mg/kg): 0.1, 0.3, 1, 3, 10.
Dimethylsulfoxide (DMSO) was used as vehicle for the test compounds and Reserpine. Reserpine was dissolved in DMSO in a concentration of 3 mg/ml. A 10% (w/v) Cyclodextrin solution was used as vehicle for CGS-21680. CGS 21680 was dissolved in 10% (w/v) Cyclodextrine in a concentration of 2 mg/ml.
Apomorphine was used as a reference compound in the Reserpine induced catalepsy model. Apomorphine injection solution was diluted with purified water to a concentration of 0.3 mg/ml. The solution was administered subcutaneously (s.c.) in a volume of 1 ml/kg (0.3 mg/kg) 20 minutes before the begin of testing after Reserpine pre-treatment (25 hours prior to testing).
The catalepsy bar after Reserpine administration was measured (CAT) as follows: The rat was placed with its forepaws on a log of wood. […] The animal was tested for three trials and the time for each trial was noted. The following parameters were calculated: maximum time to descend (s) and median time to descend (s). […]
All statistical tests were performed two tailed with a value of p<0.05 considered as significant.
To assess the effects of CGS-21680 and Reserpine pre-treatment compared to vehicle treated controls statistical comparisons between the test groups were performed using a U test statistic.
To assess the effects of test compounds on CGS-21680 and Reserpine pre-treated animals correlation analyses including animals from test groups and the respective test compound-treated groups were performed.
Additionally, parametric and non-parametric comparisons for the median catalepsy measure were performed to assess the reliability of the method. In case of parametric testing a GLM analyses was performed including animals from a control group (only vehicle treated animals) and the respective test compound-treated groups with dose as a categorical factor. In case of a significant result, a Dunnett's post hoc test was performed between the according test compound groups and a control group as reference group. In case of non-parametric testing a Kruskal-Wallis H-test was performed including animals from a control group and the respective test compound groups. In case of a significant result single U-test comparisons were performed between a control group and the groups treated with different doses of the test compound.

rats = assay: Modified Irwin test (FOB, SAC, FU); assay type: in vivo, rat; conditions: 0.01-30 mg/kg
Excerpt: In this study the compounds of the present invention were screened for basal behavioural, autonomic, neurological and toxicological side-effects in rats. For this purpose, a functional observational battery (FOB) in form of an Irwin test (Irwin S., Psychopharmacologia, 1968, 13, 222; 1968; Warburton D. M. Psychopharmacology, 2002, 163, 4; Haggerty G. C. et al., J. Amer. Coll. Toxicol., 1991, 10, 677; Mattsson J. L. et al., J. Amer. Coll. Toxicol., 1996, 15, 239, all references are herein incorporated by reference) modified and validated by the Test Facility was used. Each test compound was tested at eight doses (0.01, 0.03, 0.1, 0.3, 1.0, 3.0, 10.0 and 30.0 mg/kg). All compounds were dissolved in DMSO (administration volume 1 ml/kg). Each dose group included three animals. Two vehicle groups (DMSO and Labrasol) served as negative controls.
At the first day of each test week all test compound solutions necessary for the test (1-2 weeks) were prepared by means of one dilution series starting with the highest concentration. All test compounds dissolved in DMSO were administered in a volume of 1 ml/kg. DMSO-containing solutions were stored at −18° C. All solutions were melted for administration at room temperature 16-20 hours before the start of the test.
Study design and time schedule:
4-7 days: Acclimatization and handling of the animals 1 day: Test day with • (a) Four repeated functional observational battery (FOB): 30 min, 60 min, 120 min, 180 min following compound administration • (b) Short animal check (SAC): 300 min following compound administration 1 day: Follow-up observation (FU): • 24 h (1440 min) following compound administration.
In all experimental parts, an experienced ethologist used lists of predefined methods and behavioural parameters in order to rate the behaviour of the animal (see table 7 for functional observational battery (FOB), table 8 for short animal check (SAC) and table 9 for follow-up observation (FU).
A statistical evaluation of the data was performed that enabled an assessment of the compound's effects on each parameter. Dose-response relationships are not necessarily linear. It was not clear a priori whether the response would be dose-dependent or whether low, medium or high dose effects would occur. Therefore, the data were correlated against a set of different numeric models of theoretical dose-response curves. For this kind of evaluation the measurement times were not differentiated. An average value over all measurement times was calculated for each animal. This value was taken as one measurement within the observation vector. The complete set of parameters measured for the animal (each one averaged over time) formed the observation vector. Each dose was then represented by three observation vectors (3 animals per dose). The effects of all doses were compared with vehicle (DMSO) as the observation vectors for the zero dose. A common pool of 24 animals for the zero dose was used for all compounds to be tested. For each test compound the obtained values for each parameter together with values from the pool of vehicle-treated (DMSO) animals were then correlated with theoretical dose-response models (analysis profiles). Since 8 doses were be used, there were 8 models, each assuming that the maximum compound effect occurred at one of these doses. Effects of other doses were assumed to be attenuated with a linearly descending slope of the theoretical curve. Correlation values and statistical significance of regression were then calculated. An error probability of p<0.05 (two-tailed testing) was taken as significance level. Non-significant regressions were neglected. In consequence, each parameter was assessed as not affected or affected by the compound in a dose-response relationship according to type 1 (low dose effect) up to type 8 (high dose effect). Dose response is maximal for the effect with the greatest absolute correlation coefficient. […]

Row | Structure (SMILES) | effect in haloperidol induced model of Parkinson's Disease [1] | effect on catalepsy time in acute Reserpine induced catalepsy model [2] | maximum catalepsy values after Reserpine treatment [2] | median catalepsy values after Reserpine treatment [2] | activity in the Irwin Test (hyperlocomotion) (rats)
1 | C#CCn1c(=O)c2c(nc(C#Cc3ccc(OC)c(OC)c3)n2C)n(CC)c1=O [test compound 1, 3-ethyl-8-(3,4-dimethoxyphenylethynyl)-7-methyl-1-prop-2-ynyl-3,7-dihydropurine-2,6-dione] | effective; also recorded: significant effects | significantly reduced catalepsy time; also recorded: significant reduction of catalepsy time | only weakly reduced | significantly reduced | potent hyperlocomotion
2 | C#CCn1c(=O)c2c(nc(C#Cc3ccc(OC)c(OC)c3)n2C)n(CCCO)c1=O [test compound 2, 3-(3-hydroxypropyl)-8-(3,4-dimethoxyphenylethynyl)-7-methyl-1-prop-2-ynyl-3,7-dihydropurine-2,6-dione] |  | reduced catalepsy time; also recorded: significant reduction of catalepsy time | significantly decreased | significantly decreased | potent hyperlocomotion
